US9732111B2, “2′-alkynyl substituted nucleoside derivatives and methods of use thereof for the treatment of viral diseases” (Merck Sharp & Dohme Corp., priority 2012, dated 2017)
pEC50, pKi: −log10 of the molar value. Read-outs that look alike come from different tables or passages of the source.

Assays:
replicon cells (1b-Con1) = experiment: Cytotoxicity in replicon cells (MTS assay); details: CC50, MTS assay, three days post dosing
[1] = tested on: HCV replicon cells (1b-Con1); experiment: Replicon activity assay (replicon RNA level by real-time RT-PCR); assay type: cell-based; details: Hepatitis C virus, 72 h, read-out: Replicon (1b) EC50
[2] = molecular target: T1, HCV NS5B RNA-dependent RNA polymerase (1b-BKΔ55) (Hepatitis C virus genotype 1b, UniProt P26663); experiment: Inhibition of HCV NS5B polymerase by nucleoside triphosphate analogs (radiolabeled nucleotide incorporation assay); assay type: biochemical
T1 construct: 5 nM NS5B (1b-BKΔ55) enzyme
Procedure: To measure inhibition of the enzymatic activity of the HCV NS5B RNA-dependent RNA polymerase by the nucleoside triphosphate compounds of the present invention, a radiolabeled nucleotide incorporation assay was used. This assay is a modified version of the assay described in International Publication No. WO2002/057287. Briefly, 50 μL reactions containing 20 mM HEPES (pH 7.3); 7.5 mM DTT; 20 units/mL RNasIN; 1 μM each of ATP, GTP, UTP and CTP; 20 μCi/mL [^33P]-CTP; 10 mM MgCl; 60 mM NaCl; 100 μg/mL BSA; 0.021 μM DCoH heteropolymer RNA template; and 5 nM NS5B (1b-BKΔ55) enzyme are incubated at room temperature for 1 hour. The assay is then terminated by the addition of 500 mM EDTA (50 μL). The reaction mixture is transferred to a Millipore DE81 filter plate and the incorporation of labeled CTP is determined using Packard TopCount. Compound IC50 values can then be calculated from experiments with 10 serial 3-fold dilutions of the inhibitor in duplicate. The intrinsic potency (Ki) of an NTP inhibitor is derived from its NS5B IC50 using the Cheng-Prusoff equation for a competitive inhibitor, as described in Cheng et al., Biochem Pharmacol 22:3099-3108 (1973): Ki=IC50/(1+[S]/Km), where [S]=1 μM, and Km is the concentration of cognate NTP yielding half-maximal enzyme activity in the assay absent exogenous inhibitors.
Data was obtained using this method for the NTP analogs of selected compounds below of the present invention, and is set forth below.

T1 sequence (P26663 2420-2955, stated change not applied): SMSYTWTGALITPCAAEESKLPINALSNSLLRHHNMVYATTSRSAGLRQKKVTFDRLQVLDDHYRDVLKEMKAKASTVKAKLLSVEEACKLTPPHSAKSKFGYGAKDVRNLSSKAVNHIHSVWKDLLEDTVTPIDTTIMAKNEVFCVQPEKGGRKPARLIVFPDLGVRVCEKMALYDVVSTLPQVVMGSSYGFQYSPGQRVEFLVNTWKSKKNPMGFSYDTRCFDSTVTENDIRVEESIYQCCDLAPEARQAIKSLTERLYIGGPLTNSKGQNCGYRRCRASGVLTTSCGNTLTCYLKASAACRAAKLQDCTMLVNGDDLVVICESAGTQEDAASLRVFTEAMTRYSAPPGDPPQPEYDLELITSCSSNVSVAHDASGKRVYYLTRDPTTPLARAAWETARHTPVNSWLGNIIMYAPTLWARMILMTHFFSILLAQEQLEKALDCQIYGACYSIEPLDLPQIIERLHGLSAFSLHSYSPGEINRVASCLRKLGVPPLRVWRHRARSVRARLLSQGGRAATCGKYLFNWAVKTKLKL

Structure (SMILES)	Cytotoxicity (replicon cells (1b-Con1))	pEC50 [1]	pKi [2]	pEC50 ([1]; 1b-Con1 replicon cells, three days post-dosing)
CC#C[C@]1(O)[C@H](O)[C@@H](COP(=O)(N[C@@H](C)C(=O)OC(C)C)Oc2ccccc2)O[C@H]1n1ccc(=O)[nH]c1=O (single isomer, unassigned)	>100 µM	6.03	–	–
CC#C[C@]1(O)[C@H](O)[C@@H](COP(=O)(O)OP(=O)(O)OP(=O)(O)O)O[C@H]1n1ccc(=O)[nH]c1=O	–	–	~4.92	–
CC#C[C@@]1(F)[C@H](O)[C@@H](COP(=O)(N[C@@H](C)C(=O)OC(C)C)Oc2ccccc2)O[C@H]1n1ccc(=O)[nH]c1=O (stereo partly shown)	74.4 µM	4.34	–	–
CC#C[C@@]1(O)[C@H](O)[C@@H](COP(=O)(O)OP(=O)(O)OP(=O)(O)O)O[C@H]1n1ccc(=O)[nH]c1=O	–	–	7.24	–
C#C[C@@]1(N)[C@H](O)[C@@H](COP(=O)(O)OP(=O)(O)OP(=O)(O)O)O[C@H]1n1ccc(=O)[nH]c1=O	–	–	5.92	–
C#C[C@@]1(O)[C@H](O)[C@@H](COP(=O)(N[C@@H](C)C(=O)OC(C)C)Oc2ccccc2)O[C@H]1n1ccc(=O)[nH]c1=O (single isomer, unassigned)	>100 µM	7.05	–	–
CC(C)OC(=O)[C@H](C)NP(=O)(OC[C@H]1O[C@@H](n2ccc(=O)[nH]c2=O)[C@@](O)(C#CC2CC2)[C@@H]1O)Oc1ccccc1 (stereo partly shown)	14.2 µM	5.96	–	–
C#C[C@@]1(O)[C@@H]2OP(=O)(OC(C)C)OC[C@H]2O[C@H]1n1ccc(=O)[nH]c1=O (single isomer, unassigned)	>100 µM	–	–	4.68
C#C[C@@]1(O)[C@H](OC(=O)C(C)C)[C@@H](COP(=O)(N[C@@H](C)C(=O)OC(C)C)Oc2ccccc2)O[C@H]1n1ccc(=O)[nH]c1=O (single isomer, unassigned)	>100 µM	7.00	–	–
CC(C)OC(=O)[C@H](C)NP(=O)(OC[C@H]1O[C@@H](n2ccc(=O)[nH]c2=O)[C@@](O)(C#CC(F)(F)F)[C@@H]1O)Oc1ccccc1 (stereo partly shown)	40.7 µM	4.60	–	–
C#C[C@@]1(O)[C@H](O)[C@@H](COP(=O)(O)OP(=O)(O)OP(=O)(O)O)O[C@H]1n1ccc(=O)[nH]c1=O	–	–	7.44	–
C#C[C@]1(O)[C@H](O)[C@@H](COP(=O)(O)OP(=O)(O)OP(=O)(O)O)O[C@H]1n1ccc(=O)[nH]c1=O	–	–	~4.72	–
